Experimental data: US10028935B2, “Stabilized multi-functional antioxidant compounds and methods of use” (XPD Holdings, LLC, priority 2012, dated 2018)
Converted amounts (≈) assume the structure as drawn.

Legend:
[1] = Storage stability by reversed-phase HPLC quantitation of degradation products (impurities); format: physicochemical; conditions: storage for 1 or 2 months at 5° C., 25° C./60% RH and 40° C./75% RH; FIGS. 1-3
Description: The stability of Compound 45 and N-acetylcysteine amide (NACA) were determined using reversed-phase HPLC quantitation of the appearance of degradation products (impurities) after storage of the compounds for 1 or 2 months at 5° C., 25° C./60% relative humidity (RH), and 40° C./75% RH.
The chromatographic system used was an Agilent 1100 HPLC comprised of a degasser (model G1322A), pump (model G1311A), autosampler (model G1329A), column compartment (model G1316A), and a diode array detector (model G1315A). Agilent Chemstation software Rev. B.03.02 [341] was used to acquire and analyze all chromatographic data. […] Assay, identity, and purity of Compound 45 and NACA, and quantitation of impurities arising over time, was accomplished by a reversed-phase isocratic method using a Phenomenex Synergi Polar-RP (250×4.6 mm, […]) column at 15° C., 0.2% perchloric acid (PCA) in water and acetonitrile as mobile phase, UV detection at 210 nm, and a standard run time of 20 minutes. Standard solutions of Compound 45 and NACA were prepared in 0.2% perchloric acid to generate standard curves for quantitation of Compound 45 and NACA. Replicate samples of each analyte were collected at study initiation (baseline), after 1 month of storage under the various conditions and after 2 months of storage for quantitation of parent and impurities. […]

[2] = Solubility of stock solutions in dimethyl sulfoxide (DMSO); format: physicochemical; conditions: organic solvent or mixture, stock solution in dimethyl sulfoxide
Description: (§1) The solubility of Compound 45 and carnosine in physiologic buffer (phosphate buffered saline, pH 7.4; PBS) were determined using a BMG Labtech NEPHELOstar nephelometer (Offenburg, Germany) with Galaxy analytical software, version 4.32R2. Stock solutions of each compound were prepared initially in dimethyl sulfoxide (DMSO); Compound 45 was soluble at a concentration of 50 mM in DMSO, while carnosine was not. Subsequently, dilution series of both compounds were prepared directly in PBS (pH 7.4) for evaluation of solubility using nephlometry, with a top concentration of 500 mg/mL for each compound and serial 1:2 dilutions. A positive control compound was included to qualitatively illustrate concentration-solubility relationships using heat maps. Compound 45 was soluble in physiologic buffer at a concentration of 500 mg/mL, while carnosine was soluble only at concentrations of 250 mg/mL.

[3] = Solubility in physiologic buffer (PBS, pH 7.4) by nephelometry; format: physicochemical; conditions: aqueous buffer, thermodynamic from solid, phosphate buffered saline, top concentration 500 mg/mL, serial 1:2 dilutions
Description: as §1

[4] = Hydrolysis in human whole blood (disappearance of Compound 45, appearance of NACA and carnosine); format: in vitro ADME; conditions: 37° C.
Description: To determine hydrolysis of Compound 45 and appearance of NACA and carnosine in blood, samples of human whole blood from healthy donors anti-coagulated with sodium heparin were thermally equilibrated to, and maintained at 37° C. in a water bath. Compound 45 was then spiked from a single freshly prepared stock solution into blood aliquots to create separate samples of varying Compound 45 starting concentrations (135 μM, 13.5 μM, 10.9 μM [5 μg/mL], and 2.2 μM [1 μg/mL]). Immediately after spiking, tubes were mixed by very gently rocking tubes manually for 5 minutes to ensure homogeneity and remained in the 37° C. water bath until all time points were collected. […] Plasma samples were processed for quantitation of the disappearance (hydrolysis) of Compound 45 and the appearance of NACA or carnosine, as described below. […]
Samples in 96-well plates were analyzed on a Waters Acquity UPLC™ liquid chromatograph interfaced with a Thermo Scientific TSQ Vantage triple quadrupole mass spectrometer with electrospray ionization in the positive ion mode. […]
Compound 45, Carnosine and the NACA-thio-ether derivative product eluted at approximately 1.3 minutes. Compound 45 was detected by selected reaction monitoring of the mass-to-charge (m/z) 371 to 110 transition. Carnosine was detected by selected reaction monitoring of the m/z 227 to 110 transition. […]

With `CC(=O)N[C@@H](CSC(=O)[C@H](Cc1cnc[nH]1)NC(=O)CCN)C(N)=O` [Compound 45, (S)-S((R)-2-acetamido-3-amino-3-oxopropyl) 2-(3-aminopropanamido)-3-(1H-imidazol-5-yl)propanethioate] the “extent of degradation as measured by the percent change (increase) from baseline in impurities” value [1] was “less than the increase in impurities for NACA”, the solubility [2] was at least 50 mM and the solubility [3] was at least 500 mg/mL. For the same compound, the “metabolism of thioester linkage in blood” value [4] was “rapidly metabolized in blood”.

With `NCCC(=O)N[C@@H](Cc1cnc[nH]1)C(=O)O` [carnosine, reference compound] the solubility [2] was under 50 mM and the solubility [3] was 250 mg/mL (≈ 1110 mM).
